Measurements reported in ChEMBL document CHEMBL1201862, “PubChem BioAssay data set” (2004).
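Where inhibition never reached the appropriate level, the endpoint shown equals the highest concentration tested. Otherwise, values were interpolated linearly from a five-concentration, 48-hour dose response in 96-well plates. Here, GI50 denotes the concentration required for 50% inhibition of growth.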 The source made the active and inactive calls. Cut-off read from the data, not from the text of the source: active = GI50 up to about 1.1 µM and inactive = higher.

Experiments:
Test in all cases: inhibition of tumour cell growth, NCI panel, 48 h
[1] = system: RXF 631
[2] = system: DU-145
[3] = system: MDA-MB-231
[4] = system: MDA-N
[5] = system: PC-3
[6] = system: T47D
[7] = system: BT-549
[8] = system: Hs-578T

Measured: GI50

CCC(C(=O)O)c1ccc(OC)cc1 (configuration not stated)
inactive: [1] > 100 µM

O=C=C=P(c1ccccc1)(c1ccccc1)c1ccccc1
inactive: [1] 62.1 µM

CCOc1ccc(/C(C=O)=C(\Cl)c2ccc(OC)c(OC)c2)cc1
inactive: [1] > 100 µM

COC(=O)C1C(C)N1C (configuration not stated)
inactive: [1] > 100 µM

O=C1c2ccccc2C(=O)N1CC(O)COc1cccc2ccccc12 (configuration not stated)
inactive: [2] > 100 µM | [3] > 100 µM | [4] > 100 µM | [5] > 100 µM | [6] > 10 µM

CCOC(=O)NC(Nc1ccc(Cl)cn1)(C(F)(F)F)C(F)(F)F
inactive: [7] > 100 µM | [2] > 100 µM | [8] > 100 µM | [3] > 100 µM | [4] > 100 µM | [6] > 100 µM

CCOC(=O)NC(Nc1ncccn1)(C(=O)OCC)C(F)(F)F (configuration not stated)
inactive: [7] > 100 µM | [2] > 100 µM | [8] > 100 µM | [3] > 100 µM | [4] > 100 µM | [5] > 100 µM | [6] 56 µM
